Several values for one entry are separate records, joined by “and”; a condition that tells them apart may be missing. Equal entries are not always repeated.
Legend:
[1] = Clinical application: plasma concentration-time profile of LSD and O-H-LSD after a single oral 5 μg LSD dose in healthy volunteers; assay type: in vivo, human; settings: three healthy volunteers
Protocol: To examine the application of the developed method, LSD and O-H-LSD concentrations were quantified in plasma samples of three healthy volunteers receiving a single oral dose of 5 μg. This corresponds to a very low LSD dose, used in LSD microdosing clinical trials (Holze et al., 2021a). The study was conducted in accordance with the Declaration of Helsinki and approved by the Medical Ethics Committee of the Academic Hospital of Maastricht and Maastricht University. The use of LSD in humans was authorized by the Dutch Drug Enforcement Administration. All volunteers provided written informed consent prior to study participation. To establish concentration time profiles, blood samples were collected in lithium heparin coated tubes at the following time points: 0, 0.5, 1, 1.5, 2, 3, 4, 6 after treatment. Blood samples were centrifuged, and plasma was frozen at −20° C. until analysis.
The application of the method was assessed by analyzing the PK of LSD and O-H-LSD in three healthy volunteers treated with an oral dose of 5 μg LSD base (FIG. 5). An oral dose of 5 μg LSD base in ethanol (Holze et al., 2021) was administered to three healthy volunteers. Plasma concentrations of LSD and O-H-LSD were quantified before and up to six hours post-treatment. […] Mean values and the standard deviations are illustrated.
The maximal plasma level of LSD and O-H-LSD was on average 178 pg/ml (SD: 30.6 pg/ml) and 10.4 pg/ml (SD: 2.59 pg/ml), respectively. LSD reached Tmax approximately after 1 hour post-treatment, whereas O-H-LSD peaked after 3 hours. The LSD concentrations measured after a dose of only 5 μg were approximately 7 to 18 times higher than the methods limit of quantification. Thus, the PK of LSD could straightforwardly be established also for very low so-called microdoses (Kuypers et al., 2019). In the case of O-H-LSD, a larger amount of plasma sample was required to determine the plasma concentration time profile after a dose of 5 μg. Three times more plasma was utilized (150 instead of 50 μl), which was extracted as outlined above using however three-fold more acetonitrile for the extraction. Sensitivity was increased by evaporating the extract and reconstituting the residue in a mixture of 150 μl of mobile phase A and mobile phase B (9/1 v/v). […] In future, it will also be considered to inject a larger amount of extract, which is in a first step retained and concentrated on a trapping column. In a second step, the direction of the flow is inverted and so that the sample can be loaded and eluted on the analytical column. This column switching procedure, will increase the sensitivity in the event that the sample can be retained on the trap column. Importantly, the time-consuming solvent evaporation step can thereby be avoided.

[2] = Freeze/thaw stability tests in human plasma (three cycles, about −20° C.); assay type: physicochemical; settings: for Change in concentration [%]: 3 F/T cycles vs Baseline; for Accuracy: single QC replicate
Excerpt: (§1) Each analyte had to be stable in human plasma for at least three freeze-thaw cycles (for repeated sample preparations) and at ambient temperature for at least eight hours (maximal duration of sample preparation). Measured samples should be stable for a second injection when the first analytical run was not valid. The analytes had to be stable in the matrix at the intended storage temperatures and study duration.
(§2) An analyte was considered stable at one of the above tests when no increase or decrease of the analyte concentration of more than 15% for the mean of at least three analyzed QC samples at low, medium and at high concentration was observed.
Seven of each LLOQ, QCLOW, QCMID, QCHIGH, and ULOQ sample in human plasma were stored at about −20° C. for at least 24 hours and thawed unassisted at ambient temperature. When completely thawed, the samples were refrozen for at least 12 hours under the same conditions. The freeze-thaw cycle was repeated two more times. After the third cycle the samples were worked up and analyzed. The concentrations in the frozen and thawed samples were compared with freshly processed QC samples. Concentrations were calculated based on two freshly prepared CALs measured at the beginning and the other at the end of the validation run.

[3] = Reinjection reproducibility of worked-up plasma samples (overnight at 10° C. in autosampler; 1 week at −20° C.); assay type: physicochemical, human; settings: for Change in concentration: 1 night at 10° C. in the autosampler vs Baseline; for Change in concentration [%]: 8 days at −20° C. vs Baseline; for Accuracy: single QC replicate
Excerpt: as §1, §2
Worked-up and measured Cal and QC samples (prepared in human plasma) of a valid run were repeatedly analyzed. Reinjection was performed after overnight storage at 10° C. (autosampler) and after 1-week storage at −20° C. The run was checked according to the acceptance criteria for validation runs. The calculated mean values for QC samples were compared between the original and reinjected run.

[4] = QCHIGH: 1000 pg/ml, 3 F/T cycles
[5] = ULOQ: 10000 pg/ml, 3 F/T cycles
[6] = LLOQ: 10 pg/ml, reinjection after 8 days at −20° C.
[7] = QCHIGH: 1000 pg/ml, reinjection after 8 days at −20° C.
[8] = QCLOW: 25 pg/ml, reinjection after 8 days at −20° C.
[9] = QCMID: 100 pg/ml, reinjection after 8 days at −20° C.
[10] = ULOQ: 10000 pg/ml, reinjection after 8 days at −20° C.

SMILES: CCN(CC)C(=O)C1C=C2c3cccc4c3C(O)(C[C@H]2N(C)C1)C(=O)N4 (some centres unmarked) [O-H-LSD, 2,3-dihydro-3-hydroxy-2-oxo lysergide]
- Tmax (time of peak plasma level post-treatment) ([1]; single oral dose of 5 μg LSD base): 3 h
- maximal plasma level (average) ([1]; single oral dose of 5 μg LSD base in ethanol, LC-MS/MS, O-H-LSD measured as metabolite using 150 μl plasma): 10.4 pg/mL
- Accuracy, Intra-assay Mean ([2]; LLOQ: 10 pg/ml, 3 F/T cycles): 97%
- Found at, Intra-assay Mean ([2]; LLOQ: 10 pg/ml, 3 F/T cycles): 9.7 pg/mL
- Change in concentration [%] ([2]; LLOQ: 10 pg/ml): 6.46%
- Accuracy ([2]; LLOQ: 10 pg/ml, 3 F/T cycles): 95.9% and 97.1% and 81.7% and 95.2% and 108% and 104% and 73.9* %
- Accuracy, Intra-assay Mean ([2]; LLOQ: 10 pg/ml, Baseline): 91.1%
- Found at, Intra-assay Mean ([2]; LLOQ: 10 pg/ml, Baseline): 9.11 pg/mL
- Accuracy ([2]; LLOQ: 10 pg/ml, Baseline): 95% and 88.9% and 89.4%
- Accuracy, Intra-assay Mean [2, 4]: 96.7%
- Found at, Intra-assay Mean [2, 4]: 967 pg/mL
- Change in concentration [%] ([2]; QCHIGH: 1000 pg/ml): 0.123%
- Accuracy [2, 4]: 95% and 93.1% and 97.5% and 96.2% and 99.5% and 97.7% and 98.1%
- Accuracy, Intra-assay Mean ([2]; QCHIGH: 1000 pg/ml, Baseline): 96.6%
- Found at, Intra-assay Mean ([2]; QCHIGH: 1000 pg/ml, Baseline): 966 pg/mL
- Accuracy ([2]; QCHIGH: 1000 pg/ml, Baseline): 97.7% and 96.2% and 95.9%
- Accuracy, Intra-assay Mean ([2]; QCLOW: 25 pg/ml, 3 F/T cycles): 96.9%
- Found at, Intra-assay Mean ([2]; QCLOW: 25 pg/ml, 3 F/T cycles): 24.2 pg/mL
- Change in concentration [%] ([2]; QCLOW: 25 pg/ml): 1.57%
- Accuracy ([2]; QCLOW: 25 pg/ml, 3 F/T cycles): 109% and 96.6% and 91.4% and 101% and 97.5% and 89.3% and 92.9%
- Accuracy, Intra-assay Mean ([2]; QCLOW: 25 pg/ml, Baseline): 95.3%
- Found at, Intra-assay Mean ([2]; QCLOW: 25 pg/ml, Baseline): 23.8 pg/mL
- Accuracy ([2]; QCLOW: 25 pg/ml, Baseline): 94.7% and 91.5% and 99.8%
- Accuracy, Intra-assay Mean ([2]; QCMID: 100 pg/ml, 3 F/T cycles): 98.7%
- Found at, Intra-assay Mean ([2]; QCMID: 100 pg/ml, 3 F/T cycles): 98.7 pg/mL
- Change in concentration [%] ([2]; QCMID: 100 pg/ml): 3.7%
- Accuracy ([2]; QCMID: 100 pg/ml, 3 F/T cycles): 95.4% and 102% (2×) and 98.9% and 100% and 94.8% and 97.3%
- Accuracy, Intra-assay Mean ([2]; QCMID: 100 pg/ml, Baseline): 95.2%
- Found at, Intra-assay Mean ([2]; QCMID: 100 pg/ml, Baseline): 95.2 pg/mL
- Accuracy ([2]; QCMID: 100 pg/ml, Baseline): 95.7% and 98.6% and 91.4%
- Accuracy, Intra-assay Mean [2, 5]: 94.9%
- Found at, Intra-assay Mean [2, 5]: 9490 pg/mL
- Change in concentration [%] ([2]; ULOQ: 10000 pg/ml): −0.589%
- Accuracy [2, 5]: 92.9% and 92.6% and 96.2% and 96% and 94.8% and 94.4% and 97.2%
- Accuracy, Intra-assay Mean ([2]; ULOQ: 10000 pg/ml, Baseline): 95.4%
- Found at, Intra-assay Mean ([2]; ULOQ: 10000 pg/ml, Baseline): 9540 pg/mL
- Accuracy ([2]; ULOQ: 10000 pg/ml, Baseline): 94.2% and 92.3% and 99.7%
- Change in plasma concentration following three freeze/thaw cycles ([2]; human plasma QC samples, −20° C., three freeze/thaw cycles, vs freshly processed QC): ≤ 6.46%
- Change in concentration ([3]; LLOQ: 10 pg/ml): 1.86%
- Change in concentration ([3]; QCHIGH: 1000 pg/ml): 2.08%
- Change in concentration ([3]; QCLOW: 25 pg/ml): −0.149%
- Change in concentration ([3]; QCMID: 100 pg/ml): −1.59%
- Change in concentration ([3]; ULOQ: 10000 pg/ml): 0.101%
- Change in concentration [%] ([3]; LLOQ: 10 pg/ml): −2.09%
- Accuracy, Intra-assay Mean ([3]; LLOQ: 10 pg/ml, Baseline): 107%
- Found at, Intra-assay Mean ([3]; LLOQ: 10 pg/ml, Baseline): 10.7 pg/mL
- Accuracy ([3]; LLOQ: 10 pg/ml, Baseline): 108% and 113% and 102% and 88.5% and 120% and 97.8% and 116%
- Accuracy, Intra-assay Mean [3, 6]: 104%
- Found at, Intra-assay Mean [3, 6]: 10.4 pg/mL
- Accuracy [3, 6]: 99.5% and 106% and 116% and 107% and 94.2% and 93.9% and 113%
- Change in concentration [%] ([3]; QCHIGH: 1000 pg/ml): −1.05%
- Accuracy, Intra-assay Mean ([3]; QCHIGH: 1000 pg/ml, Baseline): 103%
- Found at, Intra-assay Mean ([3]; QCHIGH: 1000 pg/ml, Baseline): 1030 pg/mL
- Accuracy ([3]; QCHIGH: 1000 pg/ml, Baseline): 103% (2×) and 105% (2×) and 99.6% and 99% and 106%
- Accuracy, Intra-assay Mean [3, 7]: 102%
- Found at, Intra-assay Mean [3, 7]: 1020 pg/mL
- Accuracy [3, 7]: 101% (2×) and 105% and 99.3% and 100% and 102% and 104%
- Change in concentration [%] ([3]; QCLOW: 25 pg/ml): −0.294%
- Accuracy, Intra-assay Mean ([3]; QCLOW: 25 pg/ml, Baseline): 105%
- Found at, Intra-assay Mean ([3]; QCLOW: 25 pg/ml, Baseline): 26.2 pg/mL
- Accuracy ([3]; QCLOW: 25 pg/ml, Baseline): 103% and 116* % and 108% (2×) and 109% and 101% and 100%
- Accuracy, Intra-assay Mean [3, 8]: 105%
- Found at, Intra-assay Mean [3, 8]: 26.1 pg/mL
- Accuracy [3, 8]: 104% (2×) and 115% and 109% and 96.5% and 108% and 97.3%
- Change in concentration [%] ([3]; QCMID: 100 pg/ml): 1.9%
- Accuracy, Intra-assay Mean ([3]; QCMID: 100 pg/ml, Baseline): 103%
- Found at, Intra-assay Mean ([3]; QCMID: 100 pg/ml, Baseline): 103 pg/mL
- Accuracy ([3]; QCMID: 100 pg/ml, Baseline): 101% and 102% (2×) and 104% and 106% and 108% and 98.5%
- Accuracy, Intra-assay Mean [3, 9]: 105%
- Found at, Intra-assay Mean [3, 9]: 105 pg/mL
- Accuracy [3, 9]: 109% (2×) and 98% and 104% and 106% and 102% and 107%
- Change in concentration [%] ([3]; ULOQ: 10000 pg/ml): −1.27%
- Accuracy, Intra-assay Mean ([3]; ULOQ: 10000 pg/ml, Baseline): 100%
- Found at, Intra-assay Mean ([3]; ULOQ: 10000 pg/ml, Baseline): 10000 pg/mL
- Accuracy ([3]; ULOQ: 10000 pg/ml, Baseline): 101% (2×) and 98.5% and 98.4% and 97.7% and 102% (2×)
- Accuracy, Intra-assay Mean [3, 10]: 98.8%
- Found at, Intra-assay Mean [3, 10]: 9880 pg/mL
- Accuracy [3, 10]: 97.3% and 97.6% and 97.5% and 96.9% and 103% and 98.8% and 101%
- Deviations of the means of the QCs of the two runs (reinjection) after 8 days at −20° C. ([3]; worked-up human plasma samples, 8 days at −20° C.): −2.09% to +1.9
- Deviations of the means of the QCs of the two runs (reinjection) after overnight storage at 10° C. ([3]; worked-up human plasma samples, overnight at 10° C. in the autosampler): −1.59% to +2.08
